{"source": "patent US20250041190A1", "about": "“Composition and application, in particular cosmetic” (MICROPHYT, priority 2021, published 2025)", "key": {"[1]": {"system": "MOR receptor (μ-opioid receptor)", "test": "MOR receptor immunolabeling in co-culture of human keratinocytes and sensory neurons stressed with AITC", "format": "cell-based", "conditions": "positive control: AITC 1 mM alone; composition-free control (DMSO 0.2%) = 100; n=6", "method": "(§1) Sensory neurons were obtained from hiPS cells (human induced pluripotent stem cells), which were themselves obtained from human fibroblasts. The cells were seeded and maintained for 6 days in a differentiation-inducing medium at 37° C. (5% CO2). The culture medium was changed every 2 days. After 9 days in culture, the culture medium was replaced with a maturation medium. Cells were maintained in culture at a temperature of 37° C. under 5% CO2. The culture medium was changed every 2-3 days. After 14 days in culture, commercial keratinocytes from an adult donor (Lonza) were added to the differentiated hiPS cell culture. The co-culture was maintained in a culture medium consisting of a mixture of maturation medium and keratinocyte growth medium (Promocell) at a temperature of 37° C. under 5% CO2. The culture medium was changed every 2-3 days.\n(§2) After a 17-day co-culture period, the composition was added to the medium at a final concentration by weight relative to the total weight of the medium and composition of 0.01% or 0.05% (w/w). […]\n(§3) Photographs were taken with an automated microscope (InCell 2200; GE Healthcare) at ×20 magnification. MOR marker expression density was measured and compared with the control condition, corresponding to the mean of 6 samples (n=6). […]"}, "neuropeptide CGRP [2]": {"system": "neuropeptide CGRP", "test": "CGRP ELISA assay in co-culture of keratinocytes and sensory neurons, oxidative stress with AITC", "format": "cell-based, human", "conditions": "positive control: AITC 1 mM alone, 30 min stress; unstressed control (DMSO 0.2%) = 100; n=6", "method": "as §1, §2\nCGRP assay: After a 30-minute stress period, the culture supernatants were recovered and a CGRP assay by ELISA was performed. The results are expressed as the mean of 6 samples (n=6). […]"}, "[3]": {"system": "MOR receptor (μ-opioid receptor)", "test": "MOR receptor immunolabeling in co-culture of human keratinocytes and sensory neurons stressed with capsaicin", "format": "cell-based", "conditions": "positive control: capsaicin 10 μM alone; composition-free control (DMSO 0.2%) = 100; n=6", "method": "as §1, §2, §3"}, "neuropeptide CGRP [4]": {"system": "neuropeptide CGRP", "test": "CGRP ELISA assay in co-culture of keratinocytes and sensory neurons, oxidative stress with capsaicin", "format": "cell-based, human", "conditions": "positive control: capsaicin 10 μM alone, 30 min stress; unstressed control (DMSO 0.2%) = 100; n=6", "method": "Sensory neurons were obtained from hiPS cells (human induced pluripotent stem cells), which were themselves obtained from human fibroblasts. The cells were seeded and maintained for 6 days in a differentiation-inducing medium at 37° C. (5% CO2). The culture medium was changed every 2 days. After 9 days in culture, the culture medium was replaced with a maturation medium. Cells were maintained in culture at a temperature of 37° C. under 5% CO2. The culture medium was changed every 2-3 days. After 14 days in culture, commercial keratinocytes from an adult donor (Lonza) were added to the differentiated hiPS cell culture. The co-culture was maintained in a culture medium consisting of a mixture of maturation medium and keratinocyte growth medium (Promocell) at a temperature of 37° C. under 5% CO2. The culture medium was changed every 2-3 days. After a 17-day co-culture period, the composition was added to the medium at a final concentration by weight relative to the total weight of the medium and composition of 0.01% or 0.05% (w/w). After a 24-hour incubation period, capsaicin (10 µM) or AITC (1 mM) or DMSO (0.2% w/w) as a control, was added to the co-culture in the presence of the composition according to the invention. […] The results are expressed as the mean of 6 samples (n=6)."}, "[5]": {"system": "co-culture of sensory neurons and keratinocytes", "test": "Length of neuronal extensions in co-culture of sensory neurons and keratinocytes stressed with capsaicin", "format": "cell-based, human", "conditions": "positive control: capsaicin 10 μM alone; composition-free control (DMSO 0.2%) = 100; n=6", "method": "as §1\nAfter a 17-day co-culture period, the composition was added to the medium at a final concentration by weight relative to the total weight of the medium and composition of 0.01% or 0.05% (w/w).\nAfter a 24-hour incubation period, capsaicin (10 µM) or AITC (1 mM) or DMSO (0.2% w/w) as a control, was added to the co-culture in the presence of the composition according to the invention. […]\nA neuron count was performed and the length of the neuronal extensions was measured for each condition. […]"}}}
{"molecule": "C=CCN=C=S", "note": "[AITC, allyl isothiocyanate]", "values": [{"measurement": "Level of MOR receptor protein expression (%)", "setting": "[1]", "result": 78, "unit": "%"}, {"measurement": "Protein amount of CGRP (%)", "setting": "neuropeptide CGRP [2]", "result": 132, "unit": "%"}]}
{"molecule": "COc1cc(CNC(=O)CCCC/C=C/C(C)C)ccc1O", "note": "[capsaicin]", "values": [{"measurement": "Level of MOR receptor protein expression (%)", "setting": "[3]", "result": 82, "unit": "%"}, {"measurement": "Protein amount of CGRP (%)", "setting": "neuropeptide CGRP [4]", "result": 135, "unit": "%"}, {"measurement": "Length of neuronal extensions/nbr of neurons (%)", "setting": "[5]", "result": 76, "unit": "%"}]}
